# B1: CYP2C19 0.1 mg/ml: CYP2C19 microsomes at 0.1 mg/ml, tested alone (protein, UniProt P33261 1-490, looked up)
# Cytochrome P450 2C19: MDPFVVLVLCLSCLLLLSIWRQSSGRGKLPPGPTPLPVIGNILQIDIKDVSKSLTNLSKIYGPVFTLYFGLERMVVLHGYEVVKEALIDLGEEFSGRGHFPLAERANRGFGIVFSNGKRWKEIRRFSLMTLRNFGMGKRSIEDRVQEEARCLVEELRKTKASPCDPTFILGCAPCNVICSIIFQKRFDYKDQQFLNLMEKLNENIRIVSTPWIQICNNFPTIIDYFPGTHNKLLKNLAFMESDILEKVKEHQESMDINNPRDFIDCFLIKMEKEKQNQQSEFTIENLVITAADLLGAGTETTSTTLRYALLLLLKHPEVTAKVQEEIERVIGRNRSPCMQDRGHMPYTDAVVHEVQRYIDLIPTSLPHAVTCDVKFRNYLIPKGTTILTSLTSVLHDNKEFPNPEMFDPRHFLDEGGNFKKSNYFMPFSAGKRICVGEGLARMELFLFLTFILQNFNLKSLIDPKDLDTTPVVNGFASVPPFYQLCFIPV
# modifications: microsomes
# notes: CYP2C19 microsomes at 0.1 mg/ml, tested alone
# What was measured:
# CYP2D6 = CYP2D6 (Homo sapiens, UniProt P10635); assay: CYP2D6-mediated metabolism: substrate disappearance in PM human liver microsome HHM-0116 supplemented with recombinant CYP2D6-expressing microsome; settings: microsomes, 1 μM substrate, 60 min incubation
# Sequence of CYP2D6 (P10635 whole entry): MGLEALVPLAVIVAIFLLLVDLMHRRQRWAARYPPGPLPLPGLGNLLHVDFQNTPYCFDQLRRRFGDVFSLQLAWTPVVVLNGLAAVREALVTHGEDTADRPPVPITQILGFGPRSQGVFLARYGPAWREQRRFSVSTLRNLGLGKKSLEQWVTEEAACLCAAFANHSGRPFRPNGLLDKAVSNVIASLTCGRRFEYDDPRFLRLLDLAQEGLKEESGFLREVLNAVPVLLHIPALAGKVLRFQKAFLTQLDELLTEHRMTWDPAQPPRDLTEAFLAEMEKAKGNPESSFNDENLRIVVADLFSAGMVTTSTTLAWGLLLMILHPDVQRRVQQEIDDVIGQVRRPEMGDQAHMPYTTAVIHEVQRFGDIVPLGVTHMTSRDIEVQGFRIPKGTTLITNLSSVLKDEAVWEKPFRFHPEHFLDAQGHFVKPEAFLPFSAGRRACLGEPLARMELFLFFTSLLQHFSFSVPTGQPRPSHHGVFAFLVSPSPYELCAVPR
# Experimental: a) CYP2D6-mediated metabolism
# The pH of the solution was 7.4. The incubation temperature was 37° C. At specific incubation times (0, 5, 10, 30, 60 minutes), an aliquot of 100 μl was withdrawn from the reaction mixture and mixed with 1 ml of ACN containing 5 ng/ml (2S, 3S)-3-(2-methoxybenzylamino)-2-diphenylmethyl-1-azabicyclo[2,2,2] octane as an internal standard. Protein was subsequently precipitated by centrifugation (1,800×g for 10 min). and the resulting supernatant was taken, evaporated and dissolved in 100 μl of 60% ACN. Concentrations of substrates and products in the sample solutions were analyzed with a Sciex API-III mass spectrometer linked with a Hewlett-Packard HP1090 HPLC system. A volume of 10 μl of the sample portion was injected to the HPLC system equipped with a Tosoh ODS-80Ts column manufactured by Tosoh (3.2×15 mm). Mobile phases comprised 80% acetonitrile(ACN) and 10 mM ammonium acetate and the elution was isocratic with a flow rate of 0.2 mlimin. The effluent from the HPLC column was introduced into the atmospheric pressure ionization source via an ion spray interface with splitting the effluent. The ion spray interface was operated at 5000 volt in a positive ion mode. Collision gas (argon) thickness (CGT), curtain gas (N2) and Neblizer gas (air) was 300×10^13 molecules/cm^2, 0.6 liter/minute and 40 PSI, respectively. The Q2 rod offset voltage (R2) was 0-6 V. The compounds were detected by multiple reacting monitoring (MRM) detection in the API-III mass spectrometer. The MS-MS were generally the combination of precursor and product. […] Concentrations of the remaining substrates in each sample solution (%-remaining) were plotted against the desired incubation times (FIG. 1(a), (c), (e), (g), (i), (k)).
# CYP2C19 = CYP2C19 (Homo sapiens, UniProt P33261); assay: S-mephenytoin hydroxylation activity; type: biochemical; settings: 100 μM S-(+)-Mephenytoin, pH 7.4, 37 °C
# Experimental: As used herein, "S-mephenytoin hydroxylation activity" means the activity of 4'hydroxylation of S-mephenytoin as measured by HPLC-MS.
# The reagent compositions of this invention, PM microsome (i.e., HHM0102), normal human liver microsomes mixture (i.e., HLM mix-A, and HLM mix-B, and (CYP2C19 0.1 mg/ml) were tested for hydroxymephenytoin generation activity which is a known property of microsome obtained from a normal metabolizer.
# HHM-0102 microsomes (1.0 mg protein/ml) were mixed with a total of 0.3 mg protein/ml of CYP2C19 microsomes and the control microsomes with various ratios. […] Hydroxy mephenytoin which was generated in samples were analyzed by LC/MS/MS.
Molecule,"half-life at 1 µM (CYP2D6; pH 7.4, T1/2, HHM0116 + 0 mg/ml 2D6 (control microsome))","half-life at 1 µM (CYP2D6; pH 7.4, T1/2, HHM0116 + 0.1 mg/ml recombinant CYP2D6 microsome)","half-life at 1 µM (CYP2D6; pH 7.4, T1/2, HHM0116 + 0.5 mg/ml recombinant CYP2D6 microsome)","half-life at 1 µM (CYP2D6; pH 7.4, T1/2, HHM0116 + 1.0 mg/ml recombinant CYP2D6 microsome)",S-mephenytoin hydroxylation Activity (CYP2C19)
"CC(C)NCC(O)COc1cccc2ccccc12 (centres unmarked) [Propranolol, propranolol]",301 min,70.2 min,15 min,5.4 min,
B1,,,,,18.110 pmol/min/mg

# Reference: patent publication US5989844A, “Method for evaluating drug metabolism and reagent compositions therefor” (Pfizer Inc., priority 1997, dated 1999)
